“And” between values parts separate entries of the source, which are not always exact repeats. Equal values may be shown once.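 Growth conditions: 96-well plates. Treatment: test compound, 48 hours, 5 concentrations. Analysis: linear interpolation between bracketing concentrations; unreached endpoints set to highest concentration. Abbreviation: GI50, concentration required for 50% inhibition of growth. At the TGI there is no net growth.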

For 14 compounds, TGI and GI50 results are on record in PubChem BioAssay (NCI).

Test systems include CAKI-1 renal; EKVX NSCLC; HCT-116 colon; LOX IMVI melanoma; SF-539 CNS; SK-MEL-5 melanoma; SNB-19 CNS; UACC-62 melanoma; NCI-H226 lung; MCF7 breast.
Assay in all cases: growth of human tumour cells (NCI), 48 h

For the compound `CCCC(Sc1ccccc1)P(=O)(c1ccccc1)c1ccccc1` (stereo unspecified), the TGI in the assay with CAKI-1 renal is more than 100 µM; with EKVX NSCLC it was 84.1 µM; in the assay with HCT-116 colon, more than 100 µM; in the assay with LOX IMVI melanoma, more than 100 µM; with SF-539 CNS it was more than 100 µM; in the assay with SK-MEL-5 melanoma, 87.2 µM. Besides, the results for the TGI with SNB-19 CNS and in the assay with UACC-62 melanoma were more than 100 µM and 37 µM, respectively.
Take `COc1ccc(-c2nn(-c3cccc(Cl)c3)cc2-c2cc(-c3ccccc3)nc(N)n2)cc1`: the GI50 in the assay on CAKI-1 renal is 1.77 µM; in the assay with EKVX NSCLC, 2.32 µM; with NCI-H226 lung, 4.99 µM; with SF-539 CNS, 11 µM; in the assay on SK-MEL-5 melanoma it was 7.88 µM; in the assay with SNB-19 CNS it was 12.7 µM. The GI50 in the assay on UACC-62 melanoma was 8.06 µM. The TGI with CAKI-1 renal amounted to 10.7 µM; in the assay on EKVX NSCLC, 15 µM; with NCI-H226 lung, 22 µM; in the assay on SF-539 CNS, 27.7 µM; in the assay with SK-MEL-5 melanoma, 28.4 µM; in the assay with SNB-19 CNS it was 43.8 µM. The compound further gave a TGI in the assay with UACC-62 melanoma of 26 µM.
On to `C1CCOC2(CCC3(CC2)OCCCCO3)OC1`, for which the TGI in the assay with CAKI-1 renal, in the assay with HCT-116 colon, in the assay on NCI-H226 lung, in the assay with SF-539 CNS, with SK-MEL-5 melanoma and in the assay with SNB-19 CNS was more than 100 µM throughout. This compound also came in with a TGI in the assay with UACC-62 melanoma of more than 100 µM.
For `CC(=O)NC1CC2Oc3ccc(C)cc3C(C)(O2)C1O` (stereo unspecified), the TGI with EKVX NSCLC, in the assay on HCT-116 colon, in the assay on LOX IMVI melanoma, with NCI-H226 lung, with SF-539 CNS and in the assay with SNB-19 CNS was more than 100 µM throughout. In the assay on UACC-62 melanoma, this compound returned a TGI of more than 100 µM.
As to `C=C1CCC2[C@@H](CCC3[C@]2(C)CCC[C@]3(C)C(=O)OC)C1CCO` (stereo partly specified), the TGI is 24.9 µM in the assay with CAKI-1 renal; 37.9 µM in the assay with EKVX NSCLC; 19.2 µM in the assay on HCT-116 colon; 32.1 µM with NCI-H226 lung; 26.3 µM in the assay with SF-539 CNS; 17.5 µM in the assay on SK-MEL-5 melanoma. Moreover, the figures for the TGI with SNB-19 CNS and with UACC-62 melanoma were 28 µM and 27.5 µM, respectively.
Consider `O=c1[nH]c(-c2ccc(-c3nc4cc([N+](=O)[O-])ccc4c(=O)[nH]3)cc2)nc2cc([N+](=O)[O-])ccc12`, for which the TGI in the assay on CAKI-1 renal, in the assay with EKVX NSCLC, with HCT-116 colon, in the assay with LOX IMVI melanoma, with NCI-H226 lung and in the assay on SF-539 CNS was more than 100 µM each time. In addition, the TGI in the assay with SK-MEL-5 melanoma, in the assay on SNB-19 CNS and in the assay on UACC-62 melanoma was more than 100 µM each time.
For the compound `C/C=C/C=C/CCCCCCCCCCCCCC1(OC)C=CC(CC(=O)OC)OO1` (stereo unspecified), the values for the GI50 in the assay on CAKI-1 renal, in the assay on EKVX NSCLC and in the assay on LOX IMVI melanoma were 1.6 µM, 5.69 µM and 2.02 µM, respectively. Further, the TGI with CAKI-1 renal came to 3.44 µM; in the assay on EKVX NSCLC it was 17.5 µM; in the assay on HCT-116 colon, 21.7 µM; with LOX IMVI melanoma it was 3.9 µM; in the assay on SF-539 CNS, 28.6 µM; with SK-MEL-5 melanoma, 22.6 µM. Also, the values for the TGI with SNB-19 CNS and in the assay on UACC-62 melanoma were 31.7 µM and 28 µM, respectively.
For the compound `C=CCC(OCCOCC)c1cc(OCCOCC)ccc1OC` (stereo unspecified), the TGI in the assay with CAKI-1 renal, in the assay with EKVX NSCLC, in the assay on LOX IMVI melanoma, in the assay on NCI-H226 lung, with SF-539 CNS and in the assay on SK-MEL-5 melanoma was more than 100 µM in each case. Besides, the TGI in the assay with SNB-19 CNS and in the assay on UACC-62 melanoma was more than 100 µM in each case.
Consider `Cc1ccc(Sc2ccc(C)cc2[N+](=O)[O-])c([N+](=O)[O-])c1`, for which the TGI with CAKI-1 renal is more than 10 µM; in the assay on EKVX NSCLC, more than 100 µM; in the assay on HCT-116 colon it was more than 100 µM; in the assay on LOX IMVI melanoma, more than 100 µM; in the assay with NCI-H226 lung, more than 100 µM; with SF-539 CNS, more than 100 µM. Besides, the TGI with SK-MEL-5 melanoma, with SNB-19 CNS and in the assay with UACC-62 melanoma was more than 100 µM each time.
Consider `CN(C)c1ccc(C(=C2C=CC(=[N+](C)C)C=C2)c2ccc(N(C)C)cc2)cc1`, for which the GI50 is 0.249 µM in the assay with CAKI-1 renal; 0.149 µM in the assay on EKVX NSCLC; 0.0363 µM in the assay with HCT-116 colon; 0.19 µM with SF-539 CNS; 0.162 µM in the assay on SK-MEL-5 melanoma; 0.222 µM in the assay with SNB-19 CNS. Further, the GI50 in the assay with UACC-62 melanoma was 0.261 µM. Besides, the TGI was 0.788 µM and 2.43 µM in the assay on CAKI-1 renal; 1.41 µM and 1.5 µM with EKVX NSCLC; 0.36 µM with HCT-116 colon; 1.03 µM and 1.23 µM in the assay with SF-539 CNS; 0.324 µM and 0.214 µM in the assay with SK-MEL-5 melanoma; 1.48 µM and 1.71 µM with SNB-19 CNS. This compound also gave a TGI with UACC-62 melanoma of 1 µM.
As for `COC(=O)C1=C(OC(=O)c2ccc(Cl)cc2)C(C(=O)OC)[C@@]2(O)[C@@H](C(=O)OC)C(c3ccccc3Cl)C[C@@H]1[C@@H]2C(=O)OC` (stereo partly specified), the GI50 with CAKI-1 renal is 2.09 µM; in the assay with EKVX NSCLC, 6.17 µM; in the assay with HCT-116 colon, 3.17 µM; in the assay on MCF7 breast it was 5.47 µM; in the assay with SF-539 CNS, 12.4 µM; in the assay with SK-MEL-5 melanoma, 5.19 µM. For the same compound, the GI50 is 24.1 µM with SNB-19 CNS and 2.21 µM in the assay on UACC-62 melanoma. Besides, the TGI is 7.35 µM in the assay on CAKI-1 renal; more than 100 µM with EKVX NSCLC; more than 100 µM in the assay on HCT-116 colon; more than 100 µM with MCF7 breast; 61 µM in the assay on SF-539 CNS; 26.5 µM with SK-MEL-5 melanoma. Also, the TGI in the assay on SNB-19 CNS is more than 100 µM; with UACC-62 melanoma it was 4.81 µM.
Take `O=C(Nc1nc(=S)c2c(ncn2CCO)[nH]1)c1ccccc1`: the TGI in the assay with CAKI-1 renal, in the assay with EKVX NSCLC, in the assay on HCT-116 colon, in the assay with LOX IMVI melanoma, with NCI-H226 lung and with SF-539 CNS was more than 100 µM each time. In addition, the TGI with SK-MEL-5 melanoma, with SNB-19 CNS and with UACC-62 melanoma was more than 100 µM throughout.
`COc1cc(C)c(O)c(C(=O)O)c1`: the TGI in the assay on CAKI-1 renal, in the assay on HCT-116 colon, in the assay on LOX IMVI melanoma, in the assay on NCI-H226 lung, with SK-MEL-5 melanoma and in the assay on SNB-19 CNS was more than 100 µM in each case. Moreover, the TGI in the assay on UACC-62 melanoma was more than 100 µM.
For the compound `CCOC(=O)C1=C(Nc2cccc3ccccc23)OC/C1=N\NC(=O)c1ccccc1O`, the TGI in the assay on CAKI-1 renal was 80.2 µM; in the assay with EKVX NSCLC, more than 82.7 µM; with HCT-116 colon, more than 69.6 µM; in the assay on LOX IMVI melanoma, more than 72.5 µM; in the assay on NCI-H226 lung it was more than 100 µM; in the assay on SF-539 CNS it was 46.8 µM. The TGI is 37.4 µM in the assay on SK-MEL-5 melanoma, more than 100 µM with SNB-19 CNS and 48.9 µM in the assay with UACC-62 melanoma.
